One experiment concerns the target T1, HDAC6 enzyme (Homo sapiens, UniProt Q9UBN7).
T1 construct: HDAC6 enzyme prepared by transducing full length HDAC6 gene into Sf-9 insect cells; GST; purchased SignalChem; host or cells: Sf-9 insect cells
T1 sequence (Q9UBN7 1-1215): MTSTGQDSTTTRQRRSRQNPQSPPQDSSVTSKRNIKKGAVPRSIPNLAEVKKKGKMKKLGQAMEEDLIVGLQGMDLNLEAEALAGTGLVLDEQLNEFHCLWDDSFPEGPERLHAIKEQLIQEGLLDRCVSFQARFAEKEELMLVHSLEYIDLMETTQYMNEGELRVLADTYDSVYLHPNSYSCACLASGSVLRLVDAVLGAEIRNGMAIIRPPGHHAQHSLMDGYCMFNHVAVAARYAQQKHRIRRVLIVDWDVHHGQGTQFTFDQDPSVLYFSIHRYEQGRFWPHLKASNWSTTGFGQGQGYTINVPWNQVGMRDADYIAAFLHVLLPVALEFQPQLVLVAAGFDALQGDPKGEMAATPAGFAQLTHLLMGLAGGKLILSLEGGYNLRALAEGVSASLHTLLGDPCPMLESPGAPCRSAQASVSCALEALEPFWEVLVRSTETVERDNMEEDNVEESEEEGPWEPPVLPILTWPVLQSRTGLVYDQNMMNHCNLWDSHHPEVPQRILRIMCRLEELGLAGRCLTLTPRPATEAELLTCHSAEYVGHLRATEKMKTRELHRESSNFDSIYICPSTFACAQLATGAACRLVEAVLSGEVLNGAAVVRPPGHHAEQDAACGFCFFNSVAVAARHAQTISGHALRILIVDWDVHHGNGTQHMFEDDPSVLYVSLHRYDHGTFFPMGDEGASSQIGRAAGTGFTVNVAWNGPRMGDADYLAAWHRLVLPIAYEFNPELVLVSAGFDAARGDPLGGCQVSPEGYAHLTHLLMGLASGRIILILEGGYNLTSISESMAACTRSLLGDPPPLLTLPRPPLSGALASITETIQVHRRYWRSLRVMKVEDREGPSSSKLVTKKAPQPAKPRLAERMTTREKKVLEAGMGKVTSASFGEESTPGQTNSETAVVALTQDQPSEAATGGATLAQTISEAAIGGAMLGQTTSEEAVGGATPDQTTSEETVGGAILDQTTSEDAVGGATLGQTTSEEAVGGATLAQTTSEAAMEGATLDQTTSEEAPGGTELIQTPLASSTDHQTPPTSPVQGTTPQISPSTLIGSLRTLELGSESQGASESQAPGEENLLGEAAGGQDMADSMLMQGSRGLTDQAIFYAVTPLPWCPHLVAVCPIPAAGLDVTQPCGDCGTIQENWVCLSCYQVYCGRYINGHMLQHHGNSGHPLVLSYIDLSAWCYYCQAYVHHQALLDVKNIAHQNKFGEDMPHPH
Put plainly: HDAC6 enzyme inhibitory assay (HDAC-Glo I/II Assay kit). The following applies: wells without enzyme = 100% inhibition. It counts as biochemical. A digest of the protocol: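 Full-length GST-purified HDAC6 from Sf-9 cells preincubated with compound 60 min at room temperature in Tris-HCl pH 7.5 buffer with MgCl2, KCl, NaCl, glutathione, Tween-20. Substrate-developer reaction 20 min, luminescence read; no-enzyme wells set as 100% inhibition.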
For `O=C1c2cc(-c3nnc(C(F)F)o3)ccc2CN1[C@H](c1cccc(F)n1)[C@@H](O)c1cccc(F)c1` (single isomer, unassigned) [Example 90, 6-[5-(difluoromethyl)-1,3,4-oxadiazol-2-yl]-2-[(1R*,2S*)-2-(3-fluorophenyl)-1-(6-fluoropyridin-2-yl)-2-hydroxyethyl]-2,3-dihydro-1H-isoindol-1-one], the “HDAC6 inhibitory rate (%) (10 μM)” value came to 100%.

Regarding `O=C1c2cc(-c3nnc(C(F)F)o3)ccc2CN1[C@H](c1ccccn1)[C@@H](O)c1cccc(F)c1` (single isomer, unassigned) [Example 62, 6-[5-(difluoromethyl)-1,3,4-oxadiazol-2-yl]-2-[(1R*,2S*)-2-(3-fluorophenyl)-2-hydroxy-1-(pyridin-2-yl)ethyl]-2,3-dihydro-1H-isoindol-1-one], the “HDAC6 inhibitory rate (%) (10 μM)” value is 100%.

Consider `O=C1c2cc(-c3nnc(C(F)F)o3)ccc2CN1[C@H](c1ccccn1)[C@@H](O)c1cccc(C(F)(F)F)n1` (single isomer, unassigned) [Example 120, 6-[5-(difluoromethyl)-1,3,4-oxadiazol-2-yl]-2-{(1R*,2R*)-2-hydroxy-1-(pyridin-2-yl)-2-[6-(trifluoromethyl)pyridin-2-yl]ethyl}-2,3-dihydro-1H-isoindol-1-one], for which the “HDAC6 inhibitory rate (%) (10 μM)” value is on record as 101%.

For `O=C1c2cc(-c3nnc(C(F)F)o3)ccc2CN1[C@H](C1CCOCC1)[C@@H](O)c1cccc(Cl)c1` (single isomer, unassigned) [Example 71, 2-[(1R*,2S*)-2-(3-chlorophenyl)-2-hydroxy-1-(oxan-4-yl)ethyl]-6-[5-(difluoromethyl)-1,3,4-oxadiazol-2-yl]-2,3-dihydro-1H-isoindol-1-one], the “HDAC6 inhibitory rate (%) (10 μM)” value is listed as 101%.

Staying with this experiment, now noted: wells without enzyme = 100% inhibition, 10 µM.
Regarding `O=C1c2cc(-c3nnc(C(F)F)o3)ccc2CN1[C@H](c1ccc(F)cc1F)[C@@H](O)c1ccc(F)cc1` (single isomer, unassigned) [Example 33, 6-[5-(difluoromethyl)-1,3,4-oxadiazol-2-yl]-2-[(1R*,2S*)-1-(2,4-difluorophenyl)-2-(4-fluorophenyl)-2-hydroxyethyl]-2,3-dihydro-1H-isoindol-1-one], the “HDAC6 inhibitory rate (%) (10 μM)” value is on record as 100%.

Staying with this experiment, now noted: wells without enzyme = 100% inhibition, read-out: HDAC6 inhibitory rate (%) (10 μM).
Regarding `O=C1c2cc(-c3nnc(C(F)F)o3)ccc2CN1[C@H](c1cccnn1)[C@@H](O)c1ccc(Cl)cc1` (single isomer, unassigned) [Example 111, 2-[(1R*,2S*)-2-(4-chlorophenyl)-2-hydroxy-1-(pyridazin-3-yl)ethyl]-6-[5-(difluoromethyl)-1,3,4-oxadiazol-2-yl]-2,3-dihydro-1H-isoindol-1-one], the inhibition at 10 µM worked out at 99%.

For the compound `O=C1c2cc(-c3nnc(C(F)F)o3)ccc2CN1[C@H](c1ccc(F)cc1)[C@@H](O)c1ccccc1F` (racemic) [Example 29, 6-[5-(difluoromethyl)-1,3,4-oxadiazol-2-yl]-2-[(1RS,2SR)-2-(2-fluorophenyl)-1-(4-fluorophenyl)-2-hydroxyethyl]-2,3-dihydro-1H-isoindol-1-one], the inhibition at 10 µM stood at 99%.

On to `O=C1c2cc(-c3nnc(C(F)F)o3)ccc2CN1[C@H](C1CC1)[C@@H](O)c1ccccn1` [Example 38, 2-[(1R,2R)-1-cyclopropyl-2-hydroxy-2-(pyridin-2-yl)ethyl]-6-[5-(difluoromethyl)-1,3,4-oxadiazol-2-yl]-2,3-dihydro-1H-isoindol-1-one], for which the inhibition at 10 µM is 100%.

With `O=C1c2cc(-c3nnc(C(F)F)o3)ccc2CN1[C@H](c1ccccc1)[C@@H](O)c1ccccn1` (single isomer, unassigned) [Example 47, 6-[5-(difluoromethyl)-1,3,4-oxadiazol-2-yl]-2-[(1R*,2R*)-2-hydroxy-1-phenyl-2-(pyridin-2-yl)ethyl]-2,3-dihydro-1H-isoindol-1-one], the inhibition at 10 µM worked out at 99%.

For `O=C1c2cc(-c3nnc(C(F)F)o3)ccc2CN1[C@H](c1ncccn1)[C@@H](O)c1ccc(F)cc1` (racemic) [Example 134, 6-[5-(difluoromethyl)-1,3,4-oxadiazol-2-yl]-2-[(1RS,2SR)-2-(4-fluorophenyl)-2-hydroxy-1-(pyrimidin-2-yl)ethyl]-2,3-dihydro-1H-isoindol-1-one], the inhibition at 10 µM amounted to 101%.

For `O=C1c2cc(-c3nnc(C(F)F)o3)ccc2CN1[C@H](c1ccccc1)[C@@H](O)C1CCC(F)(F)CC1` (racemic) [Example 25, 2-[(1RS,2SR)-2-(4,4-difluorocyclohexyl)-2-hydroxy-1-phenylethyl]-6-[5-(difluoromethyl)-1,3,4-oxadiazol-2-yl]-2,3-dihydro-1H-isoindol-1-one], the inhibition at 10 µM came to 100%.

Consider `CCOc1ccc([C@H](O)[C@@H](c2ccccc2)N2Cc3ccc(-c4nnc(C(F)F)o4)cc3C2=O)cn1` (racemic) [Example 44, 6-[5-(difluoromethyl)-1,3,4-oxadiazol-2-yl]-2-[(1RS,2SR)-2-(6-ethoxypyridin-3-yl)-2-hydroxy-1-phenylethyl]-2,3-dihydro-1H-isoindol-1-one], for which the inhibition at 10 µM was determined as 100%.

Turning to `O=C1c2cc(-c3nnc(C(F)F)o3)ccc2CN1[C@H](c1ccccn1)[C@@H](O)c1cccc(C(F)(F)F)n1` (single isomer, unassigned) [Example 119, 6-[5-(difluoromethyl)-1,3,4-oxadiazol-2-yl]-2-{(1R*,2R*)-2-hydroxy-1-(pyridin-2-yl)-2-[6-(trifluoromethyl)pyridin-2-yl]ethyl}-2,3-dihydro-1H-isoindol-1-one], the inhibition at 10 µM came to 101%.

On to `O=C1c2cc(-c3nnc(C(F)F)o3)ccc2CN1[C@H](c1ccc(F)cc1)[C@@H](O)c1cccc(F)c1` (racemic) [Example 16, 6-[5-(difluoromethyl)-1,3,4-oxadiazol-2-yl]-2-[(1RS,2SR)-2-(3-fluorophenyl)-1-(4-fluorophenyl)-2-hydroxyethyl]-2,3-dihydro-1H-isoindol-1-one], for which the inhibition at 10 µM was 99%.

Take `O=C1c2cc(-c3nnc(C(F)F)o3)ccc2CN1[C@@H](c1ccccn1)[C@H](O)c1cccc(F)n1` [Example 8, 6-[5-(difluoromethyl)-1,3,4-oxadiazol-2-yl]-2-[(1S,2S)-2-(6-fluoropyridin-2-yl)-2-hydroxy-1-(pyridin-2-yl)ethyl]-2,3-dihydro-1H-isoindol-1-one]: the inhibition at 10 µM was 99%.

Regarding `O=C1c2cc(-c3nnc(C(F)F)o3)ccc2CN1[C@H](c1ccc(F)nc1)[C@@H](O)c1ccc(F)c(F)c1` (racemic) [Example 56, 6-[5-(difluoromethyl)-1,3,4-oxadiazol-2-yl]-2-[(1RS,2SR)-2-(3,4-difluorophenyl)-1-(6-fluoropyridin-3-yl)-2-hydroxyethyl]-2,3-dihydro-1H-isoindol-1-one], the inhibition at 10 µM came to 100%.

On to `O=C1c2cc(-c3nnc(C(F)F)o3)ccc2CN1[C@H](c1cnccn1)[C@@H](O)c1ccc(F)cc1` (single isomer, unassigned) [Example 98, 6-[5-(difluoromethyl)-1,3,4-oxadiazol-2-yl]-2-[(1R*,2S*)-2-(4-fluorophenyl)-2-hydroxy-1-(pyrazin-2-yl)ethyl]-2,3-dihydro-1H-isoindol-1-one], for which the inhibition at 10 µM is 100%.

`O=C1c2cc(-c3nnc(C(F)F)o3)ccc2CN1[C@H](c1ccc(C(F)(F)F)nc1)[C@@H](O)c1ccccc1` (racemic) [Example 17, 6-[5-(difluoromethyl)-1,3,4-oxadiazol-2-yl]-2-{(1RS,2SR)-2-hydroxy-2-phenyl-1-[6-(trifluoromethyl)pyridin-3-yl]ethyl}-2,3-dihydro-1H-isoindol-1-one]: the inhibition at 10 µM was 100%.

For `O=C1c2cc(-c3nnc(C(F)F)o3)ccc2CN1[C@H](c1ccccn1)[C@@H](O)c1ccc(C(F)(F)F)cn1` (single isomer, unassigned) [Example 104, 6-[5-(difluoromethyl)-1,3,4-oxadiazol-2-yl]-2-{(1R*,2R*)-2-hydroxy-1-(pyridin-2-yl)-2-[5-(trifluoromethyl)pyridin-2-yl]ethyl}-2,3-dihydro-1H-isoindol-1-one], the inhibition at 10 µM turned out to be 100%.

For the origin of these results see patent US12384770B2, “Heterocyclic compound” (Takeda Pharmaceutical Company Limited, priority 2019, dated 2025).
